In ChEMBL document CHEMBL5042526, “Design, Synthesis, and Biological Evaluation of Triazolone Derivatives as Potent PPARα/δ Dual Agonists for the Treatment of Nonalcoholic Steatohepatitis” (J Med Chem, 2022):
Active and inactive are the calls of the source. The rule behind the calls is not given here.

Assays:
[1] = target: T1, Peroxisome proliferator-activated receptor alpha (Mus musculus, UniProt P23204); assay: Agonist activity at mouse PPARalpha transfected in Cos7 cells co-expressing with pBIND and pGL4.35 Gal4 UAS Luc reporter plasmid by measuring luciferase activity incubated for 16 hrs by luciferase reporter gene assay
T1 sequence (P23204 whole entry): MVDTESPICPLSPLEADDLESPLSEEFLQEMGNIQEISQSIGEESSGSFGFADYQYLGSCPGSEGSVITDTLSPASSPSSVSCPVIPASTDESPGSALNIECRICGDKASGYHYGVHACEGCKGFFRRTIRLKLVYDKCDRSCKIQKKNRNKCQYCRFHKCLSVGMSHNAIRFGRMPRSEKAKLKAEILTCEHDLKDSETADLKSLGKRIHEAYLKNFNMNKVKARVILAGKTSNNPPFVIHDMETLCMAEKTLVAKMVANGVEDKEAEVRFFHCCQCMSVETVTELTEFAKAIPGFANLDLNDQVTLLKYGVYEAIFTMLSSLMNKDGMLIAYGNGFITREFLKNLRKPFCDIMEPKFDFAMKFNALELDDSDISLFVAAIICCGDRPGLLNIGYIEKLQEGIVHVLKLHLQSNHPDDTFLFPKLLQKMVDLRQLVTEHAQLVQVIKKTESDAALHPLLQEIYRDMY

[2] = target: T2, Peroxisome proliferator-activated receptor delta (Mus musculus, UniProt P35396); assay: Agonist activity at mouse PPARdelta in Cos7 cells transfected with pBIND and pGL4.35 Gal4 UAS Luc reporter plasmid by measuring luciferase activity incubated for 16 hrs by luciferase reporter gene assay
T2 sequence (P35396 whole entry): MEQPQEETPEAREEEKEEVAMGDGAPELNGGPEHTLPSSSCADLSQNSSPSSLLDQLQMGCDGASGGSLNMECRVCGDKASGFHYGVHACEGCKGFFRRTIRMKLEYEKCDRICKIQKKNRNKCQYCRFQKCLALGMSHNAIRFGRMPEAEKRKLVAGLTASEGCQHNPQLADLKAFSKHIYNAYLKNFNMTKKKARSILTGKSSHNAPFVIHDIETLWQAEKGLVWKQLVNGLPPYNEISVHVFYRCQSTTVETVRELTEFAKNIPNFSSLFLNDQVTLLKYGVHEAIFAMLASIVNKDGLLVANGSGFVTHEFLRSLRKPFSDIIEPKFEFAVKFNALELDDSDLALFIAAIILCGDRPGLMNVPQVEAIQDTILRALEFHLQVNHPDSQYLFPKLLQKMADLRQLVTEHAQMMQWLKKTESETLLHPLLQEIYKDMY

[3] = system: HepG2; assay: Agonist activity against PPARalpha/delta (unknown origin) assessed as upregulation of CPT1A mRNA expression in human HepG2 cells at 8 nM incubated for 12 hrs by RT-PCR analysis; format: cell-based; conditions: filed as agonist
[4] = system: Mus musculus; assay: In vivo agonist activity at PPARalpha/delta assessed as upregulation of […] mRNA expression in C57BL/6Nifdc mouse liver at 10 mg/kg, po for 4 days; format: functional, organism-based; conditions: time 4.0 day
[5] = system: Mus musculus; assay: In vivo agonist activity at PPARalpha/delta assessed as upregulation of Acadm-mRNA expression in C57BL/6Nifdc mouse liver at 10 mg/kg, po for 4 days; format: functional, organism-based; conditions: time 4.0 day
[6] = system: Mus musculus; assay: In vivo agonist activity against PPARalpha/delta assessed as upregulation of Acs15 mRNA expression in C57BL/6Nifdc mouse liver at 10 mg/kg, po for 4 days; format: functional, organism-based; conditions: time 4.0 day
[7] = system: Mus musculus; assay: In vivo agonist activity against PPARalpha/delta assessed as upregulation of Abcg2 mRNA expression in C57BL/6Nifdc mouse liver at 10 mg/kg, po for 4 days; format: functional, organism-based; conditions: time 4.0 day
[8] = system: Mus musculus; assay: In vivo agonist activity against PPARalpha/delta assessed as upregulation of Pex11a mRNA expression in C57BL/6Nifdc mouse skeletal muscle at 10 mg/kg, po for 4 days; format: functional, organism-based; conditions: time 4.0 day
[9] = system: Mus musculus; assay: In vivo agonist activity against PPARalpha/delta assessed as upregulation of Nfkbia-mRNA expression in C57BL/6Nifdc mouse skeletal muscle at 10 mg/kg, po for 4 days; format: functional, organism-based; conditions: time 4.0 day
[10] = system: Mus musculus; assay: In vivo agonist activity against PPARalpha/delta assessed as upregulation of Cd36 mRNA expression in C57BL/6Nifdc mouse skeletal muscle at 10 mg/kg, po for 4 days; format: functional, organism-based; conditions: time 4.0 day
[11] = system: COS7; assay: Agonist activity at human FXR (193 to 486 residues) in Cos7 cells transfected with LBD-Gal4 and pGL435 Gal4 UAS Luc reporter plasmid at 10 uM by reporter gene assay; format: cell-based
[12] = system: Mus musculus; assay: Anti-NASH activity in HF-CDAA-induced nonalcoholic steatohepatitis C57BL/6JNifdc mouse model assessed as reduction in steatosis by measuring hepatic total cholesterol level at 3 to 30 mg/kg, po; format: functional, organism-based; conditions: dose 3-30 mg/kg
[13] = system: Mus musculus; assay: Anti-NASH activity in HF-CDAA-induced nonalcoholic steatohepatitis C57BL/6JNifdc mouse model assessed as lipid number at 3 to 30 mg/kg, po by H and E staining method; format: functional, organism-based; conditions: dose 3-30 mg/kg
[14] = system: Mus musculus; assay: Anti-NASH activity in HF-CDAA-induced nonalcoholic steatohepatitis C57BL/6JNifdc mouse model assessed as reversal of inflammatory infilitration 3 to 30 mg/kg, po by H and E staining method; format: functional, organism-based; conditions: dose 3-30 mg/kg
[15] = system: Mus musculus; assay: Anti-inflammatory activity in HF-CDAA-induced nonalcoholic steatohepatitis C57BL/6JNifdc mouse model assessed as decrease in Adgre1 mRNA expression at 10 mg/kg, po; format: functional, organism-based
[16] = system: Mus musculus; assay: Anti-fibrosis effect in CCl4 induced liver fibrosis C57BL/6JNifdc mouse model assessed as downregulation of alpha-SMA expression at 3 to 30 mg/kg, po after 20 hrs by Western blot analysis; format: functional, organism-based; conditions: dose 3-30 mg/kg
[17] = system: AML12; assay: Agonist activity against PPARalpha/delta (unknown origin) assessed as upregulation of Pdk4 mRNA expression in […] cells incubated for 12 hrs by RT-PCR analysis; format: cell-based; conditions: filed as agonist, dose 8-200 nM
[18] = system: C2C12; assay: Agonist activity against PPARalpha/delta (unknown origin) assessed as upregulation of Cpt1A mRNA expression in […] cells incubated for 12 hrs by RT-PCR analysis; format: cell-based; conditions: filed as agonist, dose 8-200 nM

Cc1cc(Cn2ncn(-c3ccc(OC(F)(F)F)cc3)c2=O)cc(C)c1OC(C)(C)C(=O)O
EC50 [1]: 16.8 nM | EC50 [2]: 19.7 nM | Activity [3]: Active | Activity [4]: Active | Activity [5]: Active | Activity [6]: Active | Activity [7]: Active | Activity [8]: Active | Activity [9]: Active | Activity [10]: Active | Activity [11]: inactive | Activity [12]: Active | Activity [13]: Active | Activity [14]: Active | Activity [15]: Active | Activity [16]: Active | Activity [17]: Dose-Dependent Effect | Activity [18]: Dose-Dependent Effect
